Test results published in patent US6503532B1, “Pharmaceutical composition containing tetrahydrocannabinol and a transdermal/transcutaneous delivery method thereof” (Murty Pharmaceuticals, Inc., priority 2001, dated 2003).

Columns and labels:
[1] = Solubility of THC in ethanol:water with or without permeation enhancer (HPLC); settings: ethanol:water 70:30 v/v, aqueous with cosolvent or surfactant or cyclodextrin, thermodynamic from solid
[2] = 750 courses of oral therapy; cited from earlier work
[3] = in vivo; cited from earlier work

Compound: CCCCCc1cc(O)c2c(c1)OC(C)(C)[C@@H]1CCC(C)=C[C@@H]21 [THC, tetrahydrocannabinol]
- solubility at 24 h [1]: 20.2 mg/mL
- poor or only partial response to THC, share of courses [2]: approximately 65%
- Plasma levels for therapeutic effects [3]: ~10 nanograms/ml
